Data on four molecules can be found in patent publication US12390469B2, “SHP2 inhibitor monotherapy and uses thereof” (HUYABIO International, LLC, priority 2021, dated 2025).

The test system of one test is KYSE 520. Nature of the test: Cell viability assay (CellTiter-Glo), KYSE 520. It counts as cell-based, human. Conditions: Day 5, CellTiter-Glo. The procedure:
(§1) Cell lines and maintenance: All cell lines used for in vitro and in vivo studies were supplied as part of Crown Biosciences cell bank except KYSE520, which was provided by HUYABIO. All cell lines were maintained according to source at 37° C. and 5% CO2 unless otherwise noted. Human Lung cancer cell lines NCI-H358, HCC827, Esophageal cancer cell line KYSE520, Stomach cancer cell line NCI-N87 and Mouse Colon cancer cell line MC38 were cultured in RPMI1640+10% FBS. Pancreatic cell line MiaPaca-2 was cultured in MDME+10% FBS+2.5% HS. Pancreatic cancer cell line CAPAN-1 was cultured in IMDM+20% FBS. Brain cancer cell line U87MG was cultured in MEM+0.01 mM NEAA+10% FBS. Lung cancer cell line HCC827-ER1 (Derived from HCC827 at Crown Biosciences) was cultured in RPMI1640+10% FBS+42 μM erlotinib. Lung cancer cell line NCI-H1975 (developed at Synthego Corporation) was cultured in RPMI1640+10% FBS+100 μg/ml Hygromycin (Sun, 2020).
(§2) Cell Viability Assay: For cell cytotoxicity assays, cells were plated in 96-well plates and plating densities were determined on the basis of Crown Biosciences Cell line Database. Cells were plated at 2000 cells/well. Twenty four hours after plating, cells were treated with inhibitors at the indicated compound concentrations. On Day 5, cells were lysed with CellTiter-Glo® Luminescent Cell Viability Assay reagent (Promega) and luminescence was read using the EnVision Multi-plate reader. To calculate IC50 values, a dose-response curve is generated using a nonlinear regression model with a sigmoidal dose response. The formula of surviving rate is shown below. IC50 values were automatically generated by GraphPad Prism 8.0. The results of these assays are depicted in FIG. 1 and Table 1, and further in FIG. 9A (HCC827-ER1) and 9B (NCI-H1975 (L858R/T790M/C797S)).
(Cellular ATP, detected with luciferase, serves as a proxy for viable cell number.)

The next test deals with NCI-N87. The test can be described thus: Cell viability assay (CellTiter-Glo), NCI-N87. It is filed as cell-based, human. Conditions: Day 5, CellTiter-Glo. The procedure: as §1, §2
A further test deals with U87MG. Nature of the test: Cell viability assay (CellTiter-Glo), U87MG. It counts as cell-based. Conditions: Day 5, CellTiter-Glo. The method, then: as §1, §2
The next test deals with HCC827. Nature of the test: Cell viability assay (CellTiter-Glo), HCC827. It counts as cell-based, human. Conditions: Day 5, CellTiter-Glo. The method, then: as §1, §2
A further test relates to Capan-1. The test can be described thus: Cell viability assay (CellTiter-Glo), Capan-1. It counts as cell-based. Conditions: Day 5, CellTiter-Glo. The procedure:
as §1
(§3) Cell Viability Assay: For cell cytotoxicity assays, cells were plated in 96-well plates and plating densities were determined on the basis of Crown Biosciences Cell line Database. Cells were plated at 2000 cells/well. […] On Day 5, cells were lysed with CellTiter-Glo® Luminescent Cell Viability Assay reagent (Promega) and luminescence was read using the EnVision Multi-plate reader. […]

The subject of the next test is NCI-H1975. The test can be described thus: Cell viability assay (CellTiter-Glo), NCI-H1975. It is filed as cell-based. Conditions: Day 5, CellTiter-Glo. The method, then: as §1, §2
A further test relates to NCI-H358. Nature of the test: Cell viability assay (CellTiter-Glo), NCI-H358. It is filed as cell-based, human. Conditions: Day 5, CellTiter-Glo. The method, then:
as §1, §2

The next test relates to MIAPaCa-2. The test can be described thus: Cell viability assay (CellTiter-Glo), MIAPaCa-2. It is filed as cell-based. Conditions: Day 5, CellTiter-Glo. The method, then:
as §1, §3

Test [1] deals with lung cancer cell line HCC827-ER1. Nature of the test: Cell viability assay, HCC827-ER1 (FIG. 9A). It counts as cell-based, human. The procedure: as §1, §3
The subject of test [2] is NCI-H1975 (L858R/T790M/C797S). Nature of the test: Cell viability assay, Osimertinib resistant NCI-H1975 (FIG. 9B). It is filed as cell-based. The procedure: as §1, §3
A further test concerns cancer cell lines. Nature of the test: Cell proliferation assays, cell line panel (FIG. 1). It counts as cell-based. Conditions: compared with GH21001 (TNO-155), RMC-4550, Cisplatin. The procedure: as §1, §3
The subject of another test is MC38 tumors. Nature of the test: Tumor and blood immunotyping (FACS) in MC38 model. It is filed as in vivo, mouse. The method, then:
All cell lines were maintained in culture and cells in exponential growth phase were harvested and quantitated by cell counter before tumor inoculation. MC38 tumor cells (1×10^6) in 0.1 ml of PBS were inoculated into the right front flank of female C57/Bl animals, mean tumor size approximately 112 mm^3 at the start of treatment. NCI-H1975 (EGFR L858R/[…]/C797S) tumor cells (1×10^7) in 0.1 ml of PBS mixed with Matrigel (1:1) inoculated into female NOD/SCID animals, mean tumor approximately 200 mm^3 at the start of treatment. HCC827-ER1 tumor cells (5×10^7) in 0.1 ml of PBS mixed with Matrigel (1:1) inoculated into female Balb/C Nude animals, mean tumor approximately 325 mm^3 at the start of treatment.
The date of randomization and treatment initiation was denoted as day 0. Tumor volumes were measured twice per week in two dimensions using a caliper, and the volume will be expressed in mm^3 using the formula: V=(L×W×W)/2, where V is tumor volume, L is tumor length (the longest tumor dimension) and W is tumor width (the longest tumor dimension perpendicular to L). Dosing volume was 10 mL/kg/day. GH21001 and GH21005 were dissolved in HP-β-CD with 200 ml of 50 mM sodium citrate (pH=4.2). Anti-PD-1 and Rat IgG2a were diluted in PBS. RMC-4550 was diluted in 1% Capitsol in 50 mM sodium citrate (pH=5.0) 0.5% dosing solution of osimertinib was diluted in 2% DMSO/30% PEG300. The results of these experiments are depicted in FIG. 2A-B (MC38 tumors) and FIG. 10A-10B (NCI-H1975 (L858R/T790M/C797S) tumors). The results for HCC827 CDX model are depicted in FIG. 12A-B. Upon termination, tumors were collected. A portion of the tumor was minced and snap frozen immediately for protein isolation or tumor tissue was dissociated for FACs analysis. Another portion of the tumor was fixed in 10% neutral buffered formalin prior to processing into paraffin blocks.
Tumor dissociation: Upon termination animals bearing MC38 tumors, tumors and blood was harvested 12 hours post last dose. Tumors were enzymatically and mechanically dissociated using The Tumor Dissociation Kit (130-096-730) Miltenyi Biotec MACS Technology. Mononuclear blood cells (PBMCs) were isolated from whole blood using Histopaque-1077 (Sigma).
Tumor cell suspension, whole lysed blood or isolated PBMCs were resuspended and blocked in staining buffer with 1 μg/ml Fc-Block (Mouse BD Fc Block™ CAT #553141). All antibodies were diluted in Fc Blocking buffer except FoxP3 which was diluted in Permeabilization Buffer. Antibodies were diluted according to Crown Biosciences optimization. Cell surface markers CD45, CD4, CD335, CD11b, Gr-1 were purchased from Biolegend. CD3 was purchased from BD Biosciences. CD8, FoxP3 and LD BD were purchased from eBiosciences. Data was collected on a cytometer and data was analyzed using Kaluza Analysis Software. The results of these experiments are depicted in FIG. 3 (macrophages), FIG. 4 (monocytes), FIG. 5 (granulocytes), FIG. 6 (CD3+ cells), FIG. 7 (CD4+ cells), and FIG. 8 (CD8+ cells).

Another test relates to KC/GRO. Nature of the test: Cytokine detection assay (V-Plex Proinflammatory Panel 1 Mouse Kit) in plasma. It is filed as in vivo. Conditions: FIG. 11; tumor bearing animals, 2 hours post last dose; versus GH21001 (TNO-155) and RMC-4550; listed as Formula (Ia). The method, then: Cytokine detection assay: V-Plex Proinflammatory Panel 1 Mouse Kit (Mesoscale Discovery) was used to determine cytokine levels in plasma isolated from tumor bearing animals 2 hours post last dose. Plasma from tumor bearing animals was analyzed as described by the manufacture's guidelines. Briefly, diluted plasma is introduced to the MSD plate pre-coated with capture antibodies to KC/GRO. After incubation, samples are washed and incubated with secondary detection antibody, (MSD SULFO-TAG™). Electrochemiluminescence detection from the assay is analyzed on the Meso Scale Discovery platform and cytokine levels calculated according to manufacturer's control samples.

Structures are written as SMILES. “Also recorded” adds a separate entry of the source.

Broadly, the IC50 is the concentration at which inhibition is half-maximal.

Turning to `N.N.[Cl][Pt][Cl]` [Cisplatin], the IC50 in the test on KYSE 520 is 6800 nM; in the test with NCI-N87, 2350 nM; in the test on U87MG it was 1580 nM; with HCC827 it was 4790 nM; with Capan-1, 270 nM; with NCI-H1975 it was 3990 nM. Besides, the values for the IC50 with NCI-H358 and with MIAPaCa-2 were 4850 nM and 7150 nM, respectively.
For the molecule `C[C@@H]1OCC2(CCN(c3cnc(Sc4ccnc(N)c4Cl)c(N)n3)CC2)[C@@H]1N` [GH21001], the concentration for half-maximal inhibition (IC50) in the test on KYSE 520 (Homo sapiens, 120 h) is 450 nM; in the test with NCI-N87 (Homo sapiens, 120 h) it was 230 nM; with U87MG (Homo sapiens, U-87 MG, 120 h), 1530 nM; in the test with HCC827 (Homo sapiens, 120 h), 410 nM; in the test with Capan-1 (Homo sapiens, 120 h) it was 6060 nM; with NCI-H358 (Homo sapiens, 120 h), 460 nM.
`C[C@@H]1OCC2(CCN(c3cnc(Sc4cccc(NC(=O)c5c(O)nc6n(c5=O)CCCC6)c4Cl)cn3)CC2)[C@@H]1N` [GH21005, N-(3-((5-((3S,4S)-4-amino-3-methyl-2-oxa-8-azaspiro[4.5]decan-8-yl)pyrazin-2-yl)thio)-2-chlorophenyl)-2-hydroxy-4-oxo-6,7,8,9-tetrahydro-4H-pyrido[1,2-a]pyrimidine-3-carboxamide]: the “viability of lung cancer cell line HCC827-ER1” value in test [1] is reported as “reduces viability”. Besides, the “viability of Osimertinib resistant cancer cell line NCI-H1975 (L858R/T790M/C797S)” value in test [2] is “reduces viability”. The IC50 in the test with KYSE 520 (Homo sapiens, 120 h) is 60 nM; in the test on NCI-N87 (Homo sapiens, 120 h), 10 nM; in the test with U87MG (Homo sapiens, U-87 MG, 120 h) it was 230 nM; in the test with HCC827 (Homo sapiens, 120 h) it was 20 nM; in the test with NCI-H1975 (Homo sapiens, 120 h), 210 nM; in the test with NCI-H358 (Homo sapiens, 120 h), 30 nM. In addition, the “potency in cell proliferation assays versus other agents” value with cancer cell lines is reported as “greater potency in cell proliferation assays than other agents”. In addition, the “macrophage populations in MC38 tumors” value in the test on MC38 tumors (FIG. 3, harvested 12 hours post last dose) was “reduces macrophage populations”. Moreover, the “monocyte populations in MC38 tumors” value in the test with MC38 tumors (FIG. 4, harvested 12 hours post last dose) was “increases monocyte populations”. For the same molecule, the “granulocyte populations in MC38 tumors” value with MC38 tumors (FIG. 5, harvested 12 hours post last dose) was “increases granulocyte populations”. Besides, the “circulating CD3+ cell populations” value with MC38 tumors (FIG. 6, MC38 model, blood 12 hours post last dose) is “increases circulating CD3+ cell populations”. For the same molecule, the “circulating CD4+ cell populations” value in the test on MC38 tumors (FIG. 7, MC38 model, blood 12 hours post last dose) was “increases circulating CD4+ cell populations”. Moreover, the “circulating CD8+ cell populations” value in the test on MC38 tumors (FIG. 8, MC38 model, blood 12 hours post last dose) is recorded as “increases circulating CD8+ cell populations”. Also, the “KC/GRO level in plasma” value in the test with KC/GRO is “significantly reduced KC/GRO as compared to GH21001 (TNO-155) and RMC-4550; also recorded: reduces KC/GRO significantly more than GH21001 (TNO-155) and RMC-4550”.
Turning to `Cc1nc(N2CCC3(CC2)CO[C@@H](C)[C@H]3N)c(CO)nc1-c1cccc(Cl)c1Cl` [RMC-4550], the IC50 amounted to 490 nM in the test on KYSE 520; 260 nM with NCI-N87; 3900 nM in the test on U87MG; 690 nM with HCC827; 1440 nM with NCI-H1975; 440 nM in the test with NCI-H358.
